Laboratory results taken from ChEMBL document CHEMBL1201862, “PubChem BioAssay data set” (2004).
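Each compound was tested at five concentrations against cells in 96-well plates for 48 hours. At the GI50, growth is halved.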 Active and inactive are the calls of the source. Cut-off read from the data, not from the text of the source: active = GI50 up to about 1.1 µM and inactive = higher.

Legend:
Assay in all cases: NCI anticancer screen, dose series, 48 h
NCI-H23 = system: NCI-H23
Malme-3M = system: Malme-3M
COLO 205 = system: COLO 205
Hs-578T = system: Hs-578T
NCI-H460 = system: NCI-H460
SK-OV-3 = system: SK-OV-3
PC-3 = system: PC-3
IGROV-1 = system: IGROV-1
RPMI-8226 = system: RPMI-8226
KM12 = system: KM12
K562 = system: K562
786-0 = system: 786-0
UACC-62 = system: UACC-62
MDA-N = system: MDA-N
MOLT-4 = system: MOLT-4
SF-539 = system: SF-539
NCI-H522 = system: NCI-H522
OVCAR-3 = system: OVCAR-3
MDA-MB-435 = system: MDA-MB-435
UO-31 = system: UO-31
MCF7 = system: MCF7
SK-MEL-5 = system: SK-MEL-5
T47D = system: T47D
ACHN = system: ACHN
BT-549 = system: BT-549
SF-295 = system: SF-295
UACC-257 = system: UACC-257
LOX IMVI = system: LOX IMVI
SK-MEL-28 = system: SK-MEL-28
OVCAR-5 = system: OVCAR-5
SW-620 = system: SW-620
CAKI-1 = system: CAKI-1
SNB-75 = system: SNB-75
SF-268 = system: SF-268
HL-60 = system: HL-60
CCRF-CEM = system: CCRF-CEM
NCI/ADR-RES = system: NCI/ADR-RES
OVCAR-4 = system: OVCAR-4
A549 = system: A549
HCT-116 = system: HCT-116
DU-145 = system: DU-145
HOP-92 = system: HOP-92
SK-MEL-2 = system: SK-MEL-2
SNB-19 = system: SNB-19
HCT-15 = system: HCT-15
MDA-MB-231 = system: MDA-MB-231
HOP-62 = system: HOP-62
EKVX = system: EKVX
SN12C = system: SN12C
HCC 2998 = system: HCC 2998
M14 = system: M14
OVCAR-8 = system: OVCAR-8
RXF 393 = system: RXF 393
U-251 = system: U-251
NCI-H226 = system: NCI-H226
TK-10 = system: TK-10
HT-29 = system: HT-29
SR = system: SR
A498 = system: A498

Compound: Cc1[nH]c2ccccc2c1-c1cc(-c2cc(-c3c(C)[nH]c4ccccc34)on2)no1
- GI50 (NCI-H23): > 100 µM (inactive)
- GI50 (Malme-3M): 63.7 µM (inactive)
- GI50 (COLO 205): 84.1 µM (inactive)
- GI50 (Hs-578T): 37.2 µM (inactive)
- GI50 (NCI-H460): 42 µM (inactive)
- GI50 (SK-OV-3): 77.6 µM (inactive)
- GI50 (PC-3): 63 µM (inactive)
- GI50 (IGROV-1): 56.8 µM (inactive)
- GI50 (RPMI-8226): 85.1 µM (inactive)
- GI50 (KM12): 42.6 µM (inactive)
- GI50 (K562): 56.6 µM (inactive)
- GI50 (786-0): 92 µM (inactive)
- GI50 (UACC-62): 51.4 µM (inactive)
- GI50 (MDA-N): 21 µM (inactive)
- GI50 (MOLT-4): > 100 µM (inactive)
- GI50 (SF-539): 49 µM (inactive)
- GI50 (NCI-H522): 34.3 µM (inactive)
- GI50 (OVCAR-3): 40.6 µM (inactive)
- GI50 (MDA-MB-435): 25.8 µM (inactive)
- GI50 (UO-31): 46.6 µM (inactive)
- GI50 (MCF7): 55 µM (inactive)
- GI50 (SK-MEL-5): 38.5 µM (inactive)
- GI50 (T47D): 85.5 µM (inactive)
- GI50 (ACHN): > 100 µM (inactive)
- GI50 (BT-549): > 100 µM (inactive)
- GI50 (SF-295): 40.2 µM (inactive)
- GI50 (UACC-257): 43.1 µM (inactive)
- GI50 (LOX IMVI): 55 µM (inactive)
- GI50 (SK-MEL-28): > 100 µM (inactive)
- GI50 (OVCAR-5): > 100 µM (inactive)
- GI50 (SW-620): 53.2 µM (inactive)
- GI50 (CAKI-1): 76.2 µM (inactive)
- GI50 (SNB-75): 18.2 µM (inactive)
- GI50 (SF-268): 52.7 µM (inactive)
- GI50 (HL-60): 34.5 µM (inactive)
- GI50 (CCRF-CEM): 34.2 µM (inactive)
- GI50 (NCI/ADR-RES): > 100 µM (inactive)
- GI50 (OVCAR-4): > 100 µM (inactive)
- GI50 (A549): > 100 µM (inactive)
- GI50 (HCT-116): 44.3 µM (inactive)
- GI50 (DU-145): > 100 µM (inactive)
- GI50 (HOP-92): 83.8 µM (inactive)
- GI50 (SK-MEL-2): > 100 µM (inactive)
- GI50 (SNB-19): > 100 µM (inactive)
- GI50 (HCT-15): 57.1 µM
- GI50 (MDA-MB-231): > 100 µM (inactive)
- GI50 (HOP-62): 85.9 µM (inactive)
- GI50 (EKVX): 54.7 µM (inactive)
- GI50 (SN12C): > 100 µM (inactive)
- GI50 (HCC 2998): 61 µM (inactive)
- GI50 (M14): 37.7 µM (inactive)
- GI50 (OVCAR-8): > 100 µM (inactive)
- GI50 (RXF 393): 37.7 µM (inactive)
- GI50 (U-251): 77.8 µM (inactive)
- GI50 (NCI-H226): 98.4 µM (inactive)
- GI50 (TK-10): > 100 µM (inactive)
- GI50 (HT-29): 42.6 µM (inactive)
- GI50 (SR): 38.8 µM (inactive)
- GI50 (A498): > 100 µM (inactive)
